Among the data in patent US8367666B2 (priority 2004, dated 2013) are inhibition in vivo, Ki and IC50 values, retold here.

Like-named read-outs stand apart in the source and are kept apart here.

The test system of experiment [1] is scratching action induced by Compound 48/80. The experiment is described as follows: Anti-pruritic activity test by application (Compound 48/80 scratching). In kind it is in vivo, mouse (Crj:CD-1 (ICR)). To be noted: Mus musculus, topical, read-out: Itching inhibition ratio % (Concentration %). On the procedure:
1) Preparation of the compound and the reagent: The compound being tested was dissolved in acetone (SIGMA). Compound 48/80 (SIGMA) was dissolved in physiological saline (m by Otsuka Pharmaceutical Co., Ltd.) so as to be 60 μg/mL.
2) Animals: Female Crj: CD-1 (ICR) mice of 6 to 10 age in week (Japan Charles Liver) were used as laboratory animals. The animals were fed in the barrier breeding room where […] in room temperature, 30 to 70% in humidity, and the light and shade condition existed every 12 hours and feed (CE-2: Japan Crea) and the drinking water were freely taken. The hair of dorsa (from the cervical region of the back to the center of the back) of the animals were cut with a hair clipper two days or more before the anti-pruritic activity is evaluated, those with no wound, rubefaction, and thickening of the skin on the dehaired part were chosen and supplied to the experiment on the day of the evaluation. 3) Evaluation procedures: The acetone solution of the compound being tested was applied by 50 μL on the dehaired parts of the mice with a pipeter. On the mice of the control group, 50 μL of acetone was applied. The 15 minutes later, 50 μL (corresponding to 3 μg) of Compound 48/80 solution was injected intradermally in the compound applied parts with the use of a injector (Terumo Corporation), the mice were individually put in five observation cages made of acrylate resin at once, and the scratching action (action of scratching the injection part by the hind leg) frequency during 30 minutes was measured. The evaluation was carried out in one group of 5 to 7 mice. 4) Data processing: The experiment results were shown by the mean values. The test of the significant difference of the compound applying group to the control group was conducted with Welch's t-test, and p<0.05 was assumed to be significant.

Experiment [2] addresses T1, CB2 receptor (Homo sapiens, UniProt P34972). Description: Human cannabinoid receptor bonding inhibition test ([3H]CP55940), CB2. More on the design: expressed in transfected cells; membrane fraction. In kind it is binding.
The target in experiment [3] is T2, CB1 receptor (Homo sapiens, UniProt P21554). The experiment is described as follows: Human cannabinoid receptor bonding inhibition test ([3H]CP55940), CB1. Type of experiment: binding. More on the design: expressed in transfected cells; membrane fraction.
Experiment [4] has as its target T2, CB1 receptor. Description: cAMP formation inhibition experiment through a cannabinoid receptor (forskolin stimulation), CB1. Also on record: expressed in transfected cells; host or cells: CHO cells. In kind it is cell-based. On the procedure: A compound being tested was added in the CHO cell which had mad human CB1 or CB2 receptor reveal and incubated for 15 minutes, and then forskolin (the final concentration 4 μM, and manufactured by SIGMA Corp.) was added and the mixture was incubated for 20 minutes. After the reaction had been stopped by adding 1M hydrochloric acid, the amount of cAMP in the supernatant was measured with the use of Cyclic AMP kit (made by the CIS Diagnostic Corp.).

The target of experiment [5] is T1, CB2 receptor. Description: cAMP formation inhibition experiment through a cannabinoid receptor (forskolin stimulation), CB2. Also on record: expressed in transfected cells; host or cells: CHO cells. In kind it is cell-based.
Setting [6] is: read-out: Agonist activity (nM) CB1.
Setting [7] is: [3H]CP55940 0.5 nM, membrane preparation of CHO cells expressing CB1, Ki calculated from IC50, read-out: Binding activity (nM) CB1.
The mark [8] stands for this setting: read-out: Agonist activity (nM) CB2.
Setting [9] is: read-out: Binding activity (nM) CB1.

T1 sequence (P34972 whole entry): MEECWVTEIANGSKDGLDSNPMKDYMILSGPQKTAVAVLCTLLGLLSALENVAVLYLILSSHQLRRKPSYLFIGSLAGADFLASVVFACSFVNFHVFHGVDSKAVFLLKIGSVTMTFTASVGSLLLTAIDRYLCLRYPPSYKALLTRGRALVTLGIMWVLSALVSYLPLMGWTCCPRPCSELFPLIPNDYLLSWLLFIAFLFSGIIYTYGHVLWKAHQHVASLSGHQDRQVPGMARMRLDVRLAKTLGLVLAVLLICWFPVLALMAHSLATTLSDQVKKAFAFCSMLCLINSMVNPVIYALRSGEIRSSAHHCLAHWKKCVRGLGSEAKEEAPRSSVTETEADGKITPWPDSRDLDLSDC
T2 sequence (P21554 whole entry): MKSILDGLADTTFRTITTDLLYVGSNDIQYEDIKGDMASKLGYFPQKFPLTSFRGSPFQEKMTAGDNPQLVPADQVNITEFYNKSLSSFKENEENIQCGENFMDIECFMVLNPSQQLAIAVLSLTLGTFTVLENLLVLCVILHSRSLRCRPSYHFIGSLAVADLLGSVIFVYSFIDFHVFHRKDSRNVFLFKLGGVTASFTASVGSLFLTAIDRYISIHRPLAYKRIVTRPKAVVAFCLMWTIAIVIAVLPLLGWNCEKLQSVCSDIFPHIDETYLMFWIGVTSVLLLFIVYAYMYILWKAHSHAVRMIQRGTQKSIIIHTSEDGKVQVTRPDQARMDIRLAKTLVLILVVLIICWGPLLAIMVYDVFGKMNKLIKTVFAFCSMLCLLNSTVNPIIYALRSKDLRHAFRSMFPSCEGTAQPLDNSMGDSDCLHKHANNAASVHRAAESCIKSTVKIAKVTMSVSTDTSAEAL

Turning to `CCCCn1c2c(cc(C(=O)NCc3ccccc3)c1=O)CCCCCC2` [Compound 4-101, reference compound], the inhibition in vivo at 5 % in experiment [1] is 7.5%. Further, at CB2 receptor [2], the Ki is 1.9 nM.

Consider `CCCCn1c2c(cc(C(=O)NC3CCCCC3)c1=O)CCCCCC2` [Compound 10-035, reference compound], for which the inhibition in vivo at 5 % in experiment [1] turned out to be 22%. The Ki at CB2 receptor [2] was found to be 0.2 nM; at CB1 receptor [3], 19 nM.

Regarding `CSC(=O)C(C)(C)NC(=O)c1cc2c(n(CC3CCCCC3)c1=O)CCCCCC2` [Compound I-001, 2-[(1-cyclohexylmethyl-2-oxo-1,2,5,6,7,8,9,10-octahydro-cycloocta[b]pyridine-3-carbonyl)-amino]-2-methyl-thiopropionic acid S-methyl ester], the IC50 at CB1 receptor [4] (setting [6]) was less than 2 nM. Further, the inhibition in vivo at 0.5 % in experiment [1] was determined as 53%. The Ki at CB2 receptor [2] and on CB1 receptor [3] was less than 2 nM each time.

In the case of `CN(CCO)C(=O)C(C)(C)NC(=O)c1cc2c(n(CC3CCCCC3)c1=O)CCCCCC2` [Compound I-019, 1-cyclohexylmethyl-2-oxo-1,2,5,6,7,8,9,10-octahydro-cycloocta[b]pyridine-3-carboxylic acid {1-[(2-hydroxyethyl)-methyl-carbamoyl]-1-methyl-ethyl}-amide], the IC50 at CB1 receptor [4] (setting [6]) was 8.1 nM. Further, the inhibition in vivo at 1 % in experiment [1] came to 74%. Further, the figures for the Ki at CB2 receptor [2] and on CB1 receptor [3] (setting [7]) were less than 2 nM and 2.9 nM, respectively.

`CCCCn1c2c(cc(C(=O)N[C@H](C(=O)OC)C(C)C)c1=O)CCCCCC2` [Compound I-111]: the IC50 on CB1 receptor [4] (setting [6]) was less than 2 nM. Further, in experiment [1], the inhibition in vivo at 0.1 % turned out to be 55%. For the same compound, the figures for the Ki on CB2 receptor [2] and on CB1 receptor [3] were less than 2 nM and 3.5 nM, respectively.

As for `CCCCn1c2c(cc(C(=O)NC3(C(=O)OC)CCCCC3)c1=O)CCCCCC2` [Compound I-124], the IC50 on CB1 receptor [4] (setting [6]) is less than 2 nM. Further, in experiment [1], the inhibition in vivo at 0.5 % stood at 49%. The Ki is less than 2 nM at CB2 receptor [2] and 3.6 nM on CB1 receptor [3].

On to `CCCc1c(CC)cc(C(=O)N[C@H](C(=O)OC)C(C)C)c(=O)n1CC1CCCCC1` [Compound I-133], for which, at CB1 receptor [4] (setting [6]), the IC50 is 4 nM. Besides, the inhibition in vivo at 0.5 % in experiment [1] worked out at 56%. Besides, the Ki at CB2 receptor [2] is less than 2 nM; at CB1 receptor [3] it was 5 nM.

With `CCc1c(C)cc(C(=O)N[C@H](C(=O)OC)C(C)C)c(=O)n1CC1CCCCC1` [Compound I-134], the IC50 at CB1 receptor [4] (setting [6]) was less than 2 nM. Also, the inhibition in vivo at 0.5 % in experiment [1] turned out to be 91%. The Ki at CB2 receptor [2] and on CB1 receptor [3] was less than 2 nM each time.

`CCc1c(C)cc(C(=O)N[C@H](C(=O)OC)C(C)C)c(=O)n1Cc1ccc(F)cc1` [Compound I-196]: at CB1 receptor [4] (setting [6]), the IC50 was less than 2 nM. Moreover, in experiment [1], the inhibition in vivo at 0.5 % was determined as 47%. Also, the Ki at CB2 receptor [2] and at CB1 receptor [3] was less than 2 nM throughout.

In the case of `CCCCn1c2c(cc(C(=O)N[C@H](C(=O)OC)C(C)(C)C)c1=O)CCCCCC2` [Compound I-203], on CB1 receptor [4] (setting [6]), the IC50 was less than 2 nM. Moreover, the inhibition in vivo at 0.5 % in experiment [1] worked out at 86%. Further, the Ki at CB2 receptor [2] and on CB1 receptor [3] was less than 2 nM throughout.

As to `CCCCn1c(CCC)c(CC)cc(C(=O)N[C@H](C(=O)OC)C(C)(C)C)c1=O` [Compound I-211], the IC50 on CB1 receptor [4] (setting [6]) is less than 2 nM. For the same compound, the inhibition in vivo at 1.5 % in experiment [1] came out at 70%. For the same compound, the Ki at CB2 receptor [2] is less than 2 nM; on CB1 receptor [3], 2.4 nM.

On to `CCc1c(C)cc(C(=O)N[C@H](C(=O)OC)C(C)(C)C)c(=O)n1CC1CCCCC1` [Compound I-252], for which the IC50 on CB1 receptor [4] (setting [6]) was less than 2 nM. In addition, in experiment [1], the inhibition in vivo at 1.5 % was determined as 96%. The Ki at CB2 receptor [2] and on CB1 receptor [3] was less than 2 nM in each case.

Turning to `COC(=O)[C@@H](NC(=O)c1cc2c(n(Cc3ccc(F)cc3)c1=O)CCCCCC2)C(C)C` [Compound I-253], the IC50 at CB1 receptor [4] (setting [6]) is less than 2 nM. The inhibition in vivo at 1.5 % in experiment [1] was determined as 70%. In addition, the Ki at CB2 receptor [2] and on CB1 receptor [3] was less than 2 nM throughout.

With `COC(=O)C(C)(C)NC(=O)c1cc2c(n(Cc3ccc(F)cc3)c1=O)CCCCCC2` [Compound I-255], at CB1 receptor [4] (setting [6]), the IC50 was less than 2 nM. Also, the inhibition in vivo at 1.5 % in experiment [1] is 93%. The Ki at CB2 receptor [2] was less than 2 nM; at CB1 receptor [3], 2.1 nM.

Turning to `COC(=O)[C@@H](NC(=O)c1cc2c(n(Cc3ccc(F)cc3)c1=O)CCCCCC2)C(C)(C)C` [Compound I-263], the IC50 at CB1 receptor [4] (setting [6]) is less than 2 nM. Besides, the inhibition in vivo at 1.5 % in experiment [1] came out at 57%. The Ki at CB2 receptor [2] and on CB1 receptor [3] was less than 2 nM each time.

As to `COC(=O)[C@@H](NC(=O)c1cc2c(n(CCCC#N)c1=O)CCCCCC2)C(C)C` [Compound I-266], the IC50 at CB1 receptor [4] (setting [6]) was found to be 12 nM. For the same compound, the inhibition in vivo at 2 % in experiment [1] is 64%. The Ki was less than 2 nM on CB2 receptor [2] and 12 nM at CB1 receptor [3].

As to `CCOC(=O)C(C)(C)NC(=O)c1cc2c(n(CC3CCCCC3)c1=O)CCCCCC2` [Compound I-300], the IC50 on CB1 receptor [4] (setting [6]) was less than 2 nM. Moreover, in experiment [1], the inhibition in vivo at 0.5 % amounted to 41%. Besides, the Ki at CB2 receptor [2] and on CB1 receptor [3] was less than 2 nM in each case.

Turning to `CC(C)OC(=O)C(C)(C)NC(=O)c1cc2c(n(CC3CCCCC3)c1=O)CCCCCC2` [Compound I-301], the IC50 at CB1 receptor [4] (setting [6]) is less than 2 nM. Further, the inhibition in vivo at 0.5 % in experiment [1] is 39%. The Ki at CB2 receptor [2] and on CB1 receptor [3] was less than 2 nM throughout.

`CC(C)(NC(=O)c1cc2c(n(CC3CCCCC3)c1=O)CCCCCC2)C(=O)OCC(O)CO` (centres unmarked) [Compound I-305]: at CB1 receptor [4] (setting [6]), the IC50 is less than 2 nM. Moreover, the inhibition in vivo at 0.5 % in experiment [1] is 61%. For the same compound, the Ki at CB2 receptor [2] and at CB1 receptor [3] was less than 2 nM each time.

With `COCOC(=O)C(C)(C)NC(=O)c1cc2c(n(CC3CCCCC3)c1=O)CCCCCC2` [Compound I-306], the IC50 on CB1 receptor [4] (setting [6]) was less than 2 nM. In addition, the inhibition in vivo at 0.5 % in experiment [1] is 83%. The Ki at CB2 receptor [2] and on CB1 receptor [3] was less than 2 nM in each case.

For the compound `CCc1c(C)cc(C(=O)NC2(C(=O)O)CCCCCCC2)c(=O)n1Cc1ccc(F)cc1` [Compound X-239], the results for the IC50 on CB1 receptor [4] and against CB2 receptor [5] were greater than 2000 nM and 3.6 nM, respectively. In addition, the Ki at CB2 receptor [2] was 10 nM; at CB1 receptor [3] (setting [7]) it was 1420 nM.

On to `O=C(NC1(C(=O)O)CCCCCCC1)c1cc2c(n(CC3CCCCC3)c1=O)CCCCCC2` [Compound X-240], for which the IC50 on CB1 receptor [4] (inhibition of forskolin (4 μM)-stimulated cAMP formation, CHO cells expressing human CB1, read-out: Agonist activity (nM) CB1) was 468 nM; against CB2 receptor [5], less than 2 nM. Moreover, the Ki at CB2 receptor [2] ([3H]CP55940 0.5 nM, membrane preparation of CHO cells expressing CB2, Ki calculated from IC50, read-out: Binding activity (nM) CB2) was 6.2 nM; on CB1 receptor [3] (setting [7]), 793 nM.

For `CCCCn1c(CCC)c(CC)cc(C(=O)NC2(C(=O)O)CCCCCC2)c1=O` [Compound X-241], the IC50 was greater than 2000 nM against CB1 receptor [4] and 26 nM against CB2 receptor [5]. The figures for the Ki on CB2 receptor [2] and on CB1 receptor [3] (setting [7]) were 57 nM and greater than 2000 nM, respectively.

In the case of `O=C(NC1(C(=O)O)CCCCC1)c1cc2c(n(Cc3ccc(F)c(F)c3)c1=O)CCCCCC2` [XI-017], the IC50 at CB1 receptor [4] stood at 127 nM; against CB2 receptor [5], 11 nM. The Ki at CB2 receptor [2] is 6.6 nM; at CB1 receptor [3] (setting [7]), 441 nM.

For the compound `CCc1c(C)cc(C(=O)Nc2nc(CC(=O)O)cs2)c(=O)n1Cc1ccc(F)c(F)c1` [XI-025], the results for the IC50 against CB1 receptor [4] and on CB2 receptor [5] (setting [8]) were greater than 2000 nM and 209 nM, respectively. The Ki came out at 54 nM on CB2 receptor [2] and 1360 nM at CB1 receptor [3] (setting [9]).

Regarding `CCc1c(C)cc(C(=O)NC2(C(=O)O)CCCCC2)c(=O)n1Cc1ccc(F)c(F)c1` [XI-027], the results for the IC50 against CB1 receptor [4] and on CB2 receptor [5] (setting [8]) were greater than 2000 nM and 209 nM, respectively. Besides, the Ki on CB2 receptor [2] is 54 nM; at CB1 receptor [3] (setting [9]), 1360 nM.
